In the supplement of paper PMC10307832:

How the values were obtained:
Assay in all cases: relative viability (nuclei count vs DMSO), 5 days (fraction); higher = more cells survive
[1] = compound: O=c1[nH]cc(F)c(=O)[nH]1 [5-Fluorouracil] + CS(=O)(=O)CCNCc1ccc(-c2ccc3ncnc(Nc4ccc(OCc5cccc(F)c5)c(Cl)c4)c3c2)o1 [Lapatinib] (partner 2 µM)
In short: (§1)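 Relative viability is defined as nuclei in treated wells over nuclei in vehicle wells. Duplicate plates were run and medians reported. Lung cancer cell lines in 1536-well plates were dosed by pin tool one day after seeding, with one drug or with a fixed anchor-drug dose plus five library-drug doses (not always all listed) in √10 steps, and nuclei were counted after 5 days.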

[2] = compound: O=c1[nH]cc(F)c(=O)[nH]1 [5-Fluorouracil] + CC(C)C[C@H](NC(=O)[C@H](Cc1ccccc1)NC(=O)c1cnccn1)B(O)O [Bortezomib] (partner 0.002 µM)
In short: as §1

Sulindac + Linsitinib = compound: CC1=C(CC(=O)O)c2cc(F)ccc2/C1=C\c1ccc([S+](C)[O-])cc1 [Sulindac] + C[C@]1(O)C[C@@H](c2nc(-c3ccc4ccc(-c5ccccc5)nc4c3)c3c(N)nccn32)C1 [Linsitinib] (partner 1 µM)
In short: as §1

Sulindac + Decitabine = compound: CC1=C(CC(=O)O)c2cc(F)ccc2/C1=C\c1ccc([S+](C)[O-])cc1 [Sulindac] + Nc1ncn([C@H]2C[C@H](O)[C@@H](CO)O2)c(=O)n1 [Decitabine] (partner 2 µM)
In short: as §1

Cell Line	relative viability ([1]; first compound 0.02 µM)	relative viability ([1]; first compound 0.2 µM)	relative viability ([1]; first compound 0.6325 µM)	relative viability ([1]; first compound 2 µM)	relative viability ([2]; first compound 0.02 µM)	relative viability ([2]; first compound 0.2 µM)	relative viability ([2]; first compound 0.6325 µM)	relative viability ([2]; first compound 2 µM)	relative viability (Sulindac + Linsitinib; first compound 0.08 µM)	relative viability (Sulindac + Linsitinib; first compound 0.253 µM)	relative viability (Sulindac + Linsitinib; first compound 0.8 µM)	relative viability (Sulindac + Linsitinib; first compound 2.53 µM)	relative viability (Sulindac + Linsitinib; first compound 8 µM)	relative viability (Sulindac + Decitabine; first compound 0.08 µM)	relative viability (Sulindac + Decitabine; first compound 0.253 µM)	relative viability (Sulindac + Decitabine; first compound 0.8 µM)	relative viability (Sulindac + Decitabine; first compound 2.53 µM)	relative viability (Sulindac + Decitabine; first compound 8 µM)
LXF-289	0.897	0.782	0.333	0.285	0.99	0.712	0.312	0.282	1.02	0.984	0.931	1.05	0.993	0.404	0.416	0.372	0.381	0.452
NCI-H23	1.11	1.09	0.545	0.268	1.07	1.34	0.598	0.309	0.584	0.6	0.32	0.678	0.758	0.298	0.331	0.319	0.324	0.319
NCI-H322M	0.615	0.598	0.559	0.467	1.44	1.17	1.03	0.652	1.01	1.01	0.747	0.951	1.05	0.599	0.614	0.657	0.631	0.699
NCI-H460	0.964	0.446	0.106	0.0598	1.34	0.488	0.141	0.0496	1.13	0.79		0.988	1.15	0.745	0.536	0.438	0.435	0.601
NCI-H520	0.952	0.856	0.459	0.333	0.587	0.438	0.382	0.312	1.24	1.1	0.739	0.997	1.33	0.516	0.568	0.467	0.431	0.505
NCI-H596	1.05	0.944	0.645	0.516	1.14	0.794	0.694	0.597	0.943	0.985	0.857	1.12	1.27	0.894	0.982		1.2	1.1
NCI-H647	1.14	1.2	1.07	0.687	0.925	1.15	0.992	0.61	1.14	1.3	1.4	1.25	1.21	0.392	0.51	0.361	0.442	0.426
NCI-H650	0.555	0.681	0.524	0.455	0.894	0.622	0.517	0.529	0.973	0.87	0.62	0.817	1.23	0.33	0.325	0.341	0.284	0.339
NCI-H661	0.482	0.526	0.558	0.51	0.669	0.816	0.759	0.804	0.585	0.564	0.501	0.637	0.711	0.648	0.544	0.523	0.574	0.609
NCI-H727	1.08	1	0.743	0.594	1	1.01	0.776	0.782	0.29	0.224	0.27	0.243	0.34	0.965	1.02	0.874	0.866	0.957
NCI-H838	0.918	1.03	0.433	0.271	0.732	0.794	0.637	0.281	1.19	1.06	0.848	1.01	1.2	0.497	0.476	0.425	0.45	0.507
NCI-H1355	0.97	0.899	0.39	0.311	1.17	1.1	0.404	0.3	0.873	0.949	0.777	0.785	0.883	0.325	0.343	0.366	0.338	0.366
NCI-H1437		0.231	0.142	0.142		0.218	0.144	0.128	1.33	1.14	0.628	1.09	1.26	0.667	0.619	0.547	0.591	0.568
NCI-H1651	1.04	0.701	0.471	0.435	1.05	0.873	0.464	0.406	1.1	1.01	0.777	0.955	1.27	0.748	0.702	0.578	0.568	0.617
NCI-H1666	0.726	0.418	0.378	0.318	0.878	0.475	0.39	0.39		0.797	0.854	0.779	0.854	0.679	0.73	0.668	0.696	0.713
NCI-H1734	1.11	1.14	0.808	0.392	0.853	1.06	0.723	0.494	0.987	0.932	0.575	0.903	1.13	0.524	0.522	0.435	0.523	0.496
NCI-H1755	1.06	0.848	0.327	0.263	0.975	0.442	0.397	0.311	1.16	1.07	0.906	1	1.05	0.798	0.634	0.705	0.785	0.833
